Results reported in patent US6794402B2, “Bicyclic cyclohexylamines and their use as NMDA receptor antagonists” (Warner-Lambert Company, priority 2000, dated 2004).

How the values were obtained:
NR1A/NR2B NMDA receptor = NR1A/NR2B NMDA receptor (Rattus norvegicus, UniProt P35439+Q00960); assay: Electrophysiological assay at NMDA receptor subunits expressed in Xenopus oocytes; type: cell-based; details: cloned rat NR1A/NR2B in Xenopus oocytes, two-electrode voltage clamp, glutamate 100 μM + glycine 1-100 μM; read-out: NR1A/NR2B Oocyte IC50
Text: Preparation of RNA. cDNA clones encoding the NR1A, NR2A, NR2B, and NR2C rat NMDA receptor subtypes were used (see, Moriyoshi, supra., 1991; Kutsuwada et al., supra., 1992; Monyer et al., supra, 1992; Ikeda et al., FEBS Lett., 1992;313:34-38; Ishii et al., J. Biol. Chem., 1993;268:2836-2843 for details of these clones or their mouse homologs). The clones were transformed into appropriate host bacteria and plasmid preparations were made with conventional DNA purification techniques. A sample of each clone linearized by restriction enzyme digestion […] was synthesized with T3 RNA polymerase. The cRNA was diluted to 400 ng/μL and stored in 1-μL aliquots at −80° C. until injection.
The Xenopus oocyte expression system. Mature female Xenopus laevis were anaesthetized (20-40 minutes) using 0.15% 3-aminobenzoic acid ethyl ester (MS-222), and 2 to 4 ovarian lobes were surgically removed. Oocytes at developmental stages IV-VI (Dumont J. N., J. Morphol., 1972;136:153-180) were dissected from the ovary still surrounded by enveloping ovarian tissues. Follicle-enclosed oocytes were microinjected with 1:1 mixtures of NR1A:NR2A, 2B or 2C; injecting 1 to 10 ng of RNA encoding each receptor subunit. NR1A encoding RNA was injected alone at ˜20 ng. Oocytes were stored in Barth's medium containing (in mM): NaCl, 88; KCl, 1; CaCl2, 0.41; Ca (NO3)2, 0.33; MgSO4, 0.82; NaHCO3, 2.4; HEPES 5; pH 7.4, with 0.11 mg/mL gentamicin sulphate. While oocytes were still surrounded by enveloping ovarian tissues, the Barth's medium was supplemented with 0.1% bovine serum. Oocytes were defolliculated 1 to 2 days following injections by treatment with collagenase (0.5 mg/mL Sigma Type I for 0.5-1 hr)-(Miledi and Woodward, J. Phsyiol., (Lond) 1989;416:601-621) and subsequently stored in serum-free medium.
Electrical recordings were made using a conventional two-electrode voltage clamp (Dagan TEV-200) over periods ranging between 3 to 21 days following injection (Woodward et al., Mol. Pharmacol., 1992;41:89-103). Oocytes were placed in a 0.1-mL recording chamber continuously perfused (5 mL-15 mL min^−1) with frog Ringer's solution containing (in mM): NaCl, 115; KCL, 2; BaCl2, 1.8; HEPES, 5; and pH 7.4. Drugs were applied by bath perfusion. Using oocytes expressing different subunit combinations of NMDA receptor, NMDA currents were activated by co-application of glutamate (100 μM) and glycine (1-100 μM). Inhibitory potency of the novel antagonists was assessed on responses elicited by fixed concentrations of glutamate and glycine, by measuring reductions in current induced by progressively increasing concentrations of antagonist.
Concentration-inhibition curves were fit with Equation 1.
I/Icontrol=1/(1+([antagonist]/10−^pIC50)^n) Eq. 1
In which Icontrol is the current evoked by agonists alone, pIC50=−log IC50, IC50 is the concentration of antagonist that produced half maximal inhibition, and n is the slope factor (De Lean et al., Am. J. Physiol., 1978;235:E97-102). For incomplete curves, analysis by fitting was unreliable and IC50 values were calculated by simple regression over linear portions of the curves (Origin: Microcal Software).

[1] = target: T1, [3H]ifenprodil binding site, rat forebrain membranes (Rattus norvegicus, UniProt P35439+Q00960); assay: [3H]Ifenprodil binding assay; details: 4 nM [3H]-ifenprodil, 2 hours at room temperature
T1 construct: membrane fraction was prepared from frozen adult rat forebrains; tissue Zivic-Miller Laboratories, Inc; host or cells: adult rat forebrain, washed buffy coat membrane fraction
Procedure, shortened: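 Washed rat forebrain buffy coat membranes (100-200 μg protein) were incubated with 4 nM [3H]ifenprodil in 20 mM HEPES-KOH pH 7.4 for 2 hours at room temperature, in triplicate, then filtered on PEI-soaked GF/B filters. Nonspecific binding was set with 1 mM ifenprodil. IC50 came from a one- or two-site competition fit.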

[2] = test system: 6-Hydroxydopamine-lesioned rats; assay: 6-OHDA lesioned rat assay; type: in vivo; details: for 6-OHDA MED: minimum effective dose to potentiate contraversive rotation induced by L-DOPA methyl ester 10 mg/kg SC, 6-hour period; for 6-OHDA active/inactive at the given dose: statistically significant increase in contraversive rotations vs L-DOPA only
Procedure: 6-Hydroxydopamine-lesioned rats were used (see Ungerstedt U., Arbuthnott G. W., Quantitative recording of rotational behavior in rats after 6-hydroxy-dopamine lesions of the nigrostraiatal dopamine system. Brain Res., 1971;24(3):485-93). Adult male Sprague-Dawley rats were anesthetized with chloral hydrate and unilateral lesions of the nigrostriatal dopamine system were accomplished by infusion of 8 μg of 6-hydroxydopamine HBr (6-OHDA) into the right medial forebrain bundle. Rats were pretreated 30 minutes before surgery with desipramine HCl 25 mg/kg intraperitoneally (IP) to protect noradrenegic neurons, and pargyline 25 mg/kg IP to potentiate the effects of 6-OHDA. A minimum of 3 weeks after surgery, the rotational behavior induced by apomorphine HCL 50 μg/kg subcutaneously (SC) was assessed.
Rotational behavior was measured using an automatic rotometer system (Rotorat Rotational Activity System, MED Associates, Georgia, Vt.). Anti-parkinsonian activity was assessed as the ability of the compound to potentiate the contraversive rotation induced by L-DOPA methyl ester, 10 mg/kg SC, over a 6-hour period. Experiments were conducted using a crossover paradigm where each rat received either a vehicle plus L-DOPA, or the test compound plus L-DOPA, in randomized order. Rats were tested at 7-day intervals. In experiments in which the compound was tested orally, rats were food deprived for 16 hours. Statistical analysis between treatment groups were performed using a paired t-test. The results were reported in Table 1 as the minimum effective dose (MED) of compound (mg/kg) required to produce a statistically-significant increase in total contraversive rotations compared to rats receiving L-DOPA only.

Chain of NR1A/NR2B NMDA receptor (Q00960 27-1482, other chains not shown): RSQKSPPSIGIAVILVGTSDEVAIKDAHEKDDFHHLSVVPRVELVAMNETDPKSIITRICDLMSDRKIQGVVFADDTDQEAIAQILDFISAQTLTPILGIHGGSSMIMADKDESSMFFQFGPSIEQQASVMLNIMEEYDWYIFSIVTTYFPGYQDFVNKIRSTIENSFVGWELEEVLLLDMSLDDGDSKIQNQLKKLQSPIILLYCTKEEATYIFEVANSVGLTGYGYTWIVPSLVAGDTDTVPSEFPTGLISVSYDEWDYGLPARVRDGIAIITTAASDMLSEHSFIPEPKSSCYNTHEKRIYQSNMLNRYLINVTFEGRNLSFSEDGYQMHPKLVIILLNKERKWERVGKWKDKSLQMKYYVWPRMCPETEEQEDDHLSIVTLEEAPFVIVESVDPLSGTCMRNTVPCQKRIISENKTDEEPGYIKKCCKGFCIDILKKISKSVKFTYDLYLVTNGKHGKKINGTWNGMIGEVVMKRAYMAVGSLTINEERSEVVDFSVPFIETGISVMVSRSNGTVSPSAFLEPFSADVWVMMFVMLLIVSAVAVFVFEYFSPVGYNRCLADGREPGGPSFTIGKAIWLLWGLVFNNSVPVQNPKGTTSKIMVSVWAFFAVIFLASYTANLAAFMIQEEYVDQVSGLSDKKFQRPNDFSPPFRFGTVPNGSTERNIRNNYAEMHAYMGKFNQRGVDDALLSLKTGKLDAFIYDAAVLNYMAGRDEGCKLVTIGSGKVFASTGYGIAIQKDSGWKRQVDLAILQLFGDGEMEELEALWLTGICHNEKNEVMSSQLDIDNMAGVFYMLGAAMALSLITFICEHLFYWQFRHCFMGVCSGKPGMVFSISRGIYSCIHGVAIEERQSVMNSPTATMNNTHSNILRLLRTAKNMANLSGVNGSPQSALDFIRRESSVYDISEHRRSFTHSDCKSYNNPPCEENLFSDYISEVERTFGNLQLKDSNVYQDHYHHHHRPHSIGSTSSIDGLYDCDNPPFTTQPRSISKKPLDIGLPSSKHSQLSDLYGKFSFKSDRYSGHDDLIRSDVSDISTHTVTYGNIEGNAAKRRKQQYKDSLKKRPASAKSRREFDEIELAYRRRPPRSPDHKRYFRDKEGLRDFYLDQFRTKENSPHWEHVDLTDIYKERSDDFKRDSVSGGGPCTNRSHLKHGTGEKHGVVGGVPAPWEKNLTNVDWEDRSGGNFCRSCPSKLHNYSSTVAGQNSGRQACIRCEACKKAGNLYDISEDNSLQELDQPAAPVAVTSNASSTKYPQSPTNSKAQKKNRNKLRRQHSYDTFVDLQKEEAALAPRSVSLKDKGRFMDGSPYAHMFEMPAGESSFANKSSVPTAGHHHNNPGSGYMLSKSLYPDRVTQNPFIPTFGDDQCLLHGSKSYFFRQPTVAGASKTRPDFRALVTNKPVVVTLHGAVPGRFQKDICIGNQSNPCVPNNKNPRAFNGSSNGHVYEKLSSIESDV
T1 sequence (Q00960 27-1482, other chains not shown): as above

O=c1[nH]c2ccc([C@H]3CC[C@H](NCC[S+]([O-])c4ccccc4)CC3)cc2o1 (stereo partly drawn) [Example 15, 6-[trans-4-(2-Benzenesulfinylethylamino)cyclohexyl]-3H-benzoxazol-2-one]
IC50 (NR1A/NR2B NMDA receptor): 460 nM | IC50 [1]: 92 nM

O=c1[nH]c2ccc([C@H]3CC[C@H](NCCCc4ccc(F)cc4)CC3)cc2o1 [Example 4a, 6-{trans-4-[3-(4-Fluorophenyl)propylamino]cyclohexyl}-3H-benzoxazol-2-one]
IC50 (NR1A/NR2B NMDA receptor): 20 nM | IC50 [1]: 7 nM | 6-OHDA MED [2]: > 10.0 mg/kg | 6-OHDA active/inactive at the given dose [2]: inactive

O=c1[nH]c2ccc([C@H]3CC[C@H](NCCSc4ccc(F)cc4)CC3)cc2o1 [Example 8, 6-{trans-4-[2-(4-Fluorophenylsulfanyl)ethylamino]cyclohexyl}-3H-benzoxazol-2-one]
IC50 (NR1A/NR2B NMDA receptor): 20 nM

CCN(CCCc1ccc(F)cc1)[C@H]1CC[C@H](c2ccc3[nH]c(=O)oc3c2)CC1 [Example 25, 6-(trans-4-{Ethyl-[3-(4-fluorophenyl)propyl]amino}cyclohexyl)-3H-benzoxazol-2-one]
IC50 [1]: 79 nM | 6-OHDA MED [2]: 10 mg/kg | 6-OHDA active/inactive at the given dose [2]: active

O=c1[nH]c2ccc([C@H]3CC[C@H](NCCS(=O)(=O)c4ccccc4)CC3)cc2o1 [Example 16, 6-[trans-4-(2-Benzenesulfonylethylamino)cyclohexyl]-3H-benzoxazol-2-one]
IC50 (NR1A/NR2B NMDA receptor): 2500 nM | IC50 [1]: 1730 nM

CN(CCOc1ccccc1)[C@H]1CC[C@H](c2ccc3[nH]c(=O)oc3c2)CC1 [Example 22, 6-{trans-4-[Methyl(2-phenoxyethyl)amino]cyclohexyl}-3H-benzoxazol-2-one]
IC50 [1]: 53 nM | 6-OHDA MED [2]: 10 mg/kg | 6-OHDA active/inactive at the given dose [2]: active

CN(CCSc1ccc(F)cc1)[C@H]1CC[C@H](c2ccc3[nH]c(=O)oc3c2)CC1 [Example 20, 6-{trans-4-[2-(4-Fluorophenylsulfanylethyl)methylamino]cyclohexyl}-3H-benzoxazol-2-one]
IC50 [1]: 25 nM | 6-OHDA MED [2]: 30 mg/kg | 6-OHDA active/inactive at the given dose [2]: active

COc1ccc([C@H](O)[C@H](C)N[C@H]2CC[C@@H](c3ccc4[nH]c(=O)oc4c3)CC2)cc1 [Example 11b, 6-{cis-4-[(1S,2S)-2-Hydroxy-2-(4-methoxyphenyl)-1-methylethylamino]-cyclohexyl}-3H-benzoxazol-2-one]
IC50 (NR1A/NR2B NMDA receptor): 10000 nM | IC50 [1]: > 1000 nM

CN(CCCc1ccc(C(F)(F)F)cc1)[C@H]1CC[C@H](c2ccc3[nH]c(=O)oc3c2)CC1 [Example 23, 6-{trans-4-[Methyl-3-(4-Trifluoromethylphenyl)propylamino]cyclohexyl}-3H-benzoxazol-2-one]
IC50 [1]: 38 nM | 6-OHDA MED [2]: 10 mg/kg | 6-OHDA active/inactive at the given dose [2]: active

Cc1ccc(CCCN[C@H]2CC[C@@H](c3ccc4[nH]c(=O)oc4c3)CC2)cc1 [Example 13a, 6-[cis-4-(3-p-Tolylpropylamino)cyclohexyl]-3H-benzoxazol-2-one]
IC50 (NR1A/NR2B NMDA receptor): 80 nM | IC50 [1]: 38 nM

O=c1[nH]c2ccc([C@H]3CC[C@H](NCCSc4ccccc4)CC3)cc2o1 [Example 5a, 6-[trans-4-(2-Phenylsulfanylethylamino)cyclohexyl]-3H-benzoxazol-2-one]
IC50 (NR1A/NR2B NMDA receptor): 20 nM | IC50 [1]: 4 nM

CN(CCCc1ccccc1)[C@H]1CC[C@H](c2ccc3[nH]c(=O)oc3c2)CC1 [Example 17, 6-{trans-4-[Methyl(3-phenylpropyl)amino]cyclohexyl}-3H-benzoxazol-2-one]
IC50 [1]: 10 nM | 6-OHDA MED [2]: 10 mg/kg | 6-OHDA active/inactive at the given dose [2]: active | melting point: 58 to 62 °C

COc1ccc([C@H](O)[C@H](C)N[C@H]2CC[C@H](c3ccc4[nH]c(=O)oc4c3)CC2)cc1 [Example 11a, 6-{trans-4-[(1S,2S)-2-Hydroxy-2-(4-methoxyphenyl)-1-methylethylamino]-cyclohexyl}-3H-benzoxazol-2-one]
IC50 (NR1A/NR2B NMDA receptor): 55000 nM | IC50 [1]: > 1000 nM

C[C@H](N[C@H]1CC[C@H](c2ccc3[nH]c(=O)oc3c2)CC1)[C@H](O)c1ccccc1 (stereo in doubt) [Example 12, 6-{trans-4-[(1S,2R)-2-Hydroxy-1-methyl-2-phenylethylamino]cyclohexyl}-3H-benzoxazol-2-one]
IC50 (NR1A/NR2B NMDA receptor): 70000 nM | IC50 [1]: 22500 nM

C[C@H](CCc1ccccc1)N[C@H]1CC[C@H](c2ccc3[nH]c(=O)oc3c2)CC1 [Example 9, 6-{trans-4-[(R)-1-Methyl-3-phenylpropylamino]cyclohexyl}-3H-benzoxazol-2-one]
IC50 (NR1A/NR2B NMDA receptor): 60 nM | IC50 [1]: 15 nM

C[C@@H](CCc1ccccc1)N[C@H]1CC[C@H](c2ccc3[nH]c(=O)oc3c2)CC1 [Example 10, 6-{trans-4-[(S)-1-Methyl-3-phenylpropylamino]cyclohexyl}-3H-benzoxazol-2-one]
IC50 (NR1A/NR2B NMDA receptor): 110 nM | IC50 [1]: 49 nM | melting point: 174 to 176 °C

Cc1ccc(CCCN(C)[C@H]2CC[C@H](c3ccc4[nH]c(=O)oc4c3)CC2)cc1 [Example 21, 6-{trans-4-[Methyl-3-(p-Tolylpropyl)amino]cyclohexyl}-3H-benzoxazol-2-one]
IC50 [1]: 16 nM | 6-OHDA MED [2]: 10 mg/kg | 6-OHDA active/inactive at the given dose [2]: active

Cc1ccc(CCCN[C@H]2CC[C@H](c3ccc4[nH]c(=O)oc4c3)CC2)cc1 [Example 13b, 6-[trans-4-(3-p-Tolylpropylamino)cyclohexyl]-3H-benzoxazol-2-one]
IC50 (NR1A/NR2B NMDA receptor): 20 nM | IC50 [1]: 5 nM

O=c1[nH]c2ccc([C@H]3CC[C@H](NCCNc4ccccc4)CC3)cc2o1 [Example 7, 6-[trans-4-(2-Phenylaminoethylamino)cyclohexyl]-3H-benzoxazol-2-one]
IC50 (NR1A/NR2B NMDA receptor): 90 nM | IC50 [1]: 37 nM | melting point: 293 to 295 °C

CC(CCN(C)[C@H]1CC[C@H](c2ccc3[nH]c(=O)oc3c2)CC1)c1ccccc1 (stereo partly drawn) [Example 37b, 6-[trans-4-(Methyl-3-phenylbutylamino)cyclohexyl]-3H-benzoxazol-2-one]
IC50 [1]: 32 nM | melting point: 61 to 70 °C
